Source: ChEMBL document CHEMBL1124866, “Synthesis and activity of NAcSerAspLysPro analogues on cellular interactions between T-cell and erythrocytes in rosette formation” (1990)
Active and inactive are the calls of the source. The rule behind the calls is not given here. Peptide text beside a SMILES is read from it.

Tests used:
Jurkat [1] = test: (§1) Activity on rosetting of jurkat T-cells with SRBC at the concentration of 10e-9 M; type: functional, Homo sapiens
Jurkat [2] = test: (§2) Activity on rosetting of jurkat T-cells with SRBC at the concentration of 10e-4 M; type: functional, Homo sapiens
Jurkat [3] = test: (§3) Activity on rosetting of jurkat T-cells with SRBC at the concentration of 10e-5 M; type: functional, Homo sapiens
Jurkat [4] = test: (§4) Activity on rosetting of jurkat T-cells with SRBC at the concentration of 10e-6 M; type: functional, Homo sapiens
Jurkat [5] = test: (§5) Activity on rosetting of jurkat T-cells with SRBC at the concentration of 10e-7 M; type: functional, Homo sapiens
Jurkat [6] = test: (§6) Activity on rosetting of jurkat T-cells with SRBC at the concentration of 10e-8 M; type: functional, Homo sapiens
Jurkat [7] = test: as §2; type: functional; settings: Homo sapiens
Jurkat [8] = test: as §3; type: functional; settings: Homo sapiens
Jurkat [9] = test: as §4; type: functional; settings: Homo sapiens
Jurkat [10] = test: as §5; type: functional; settings: Homo sapiens
Jurkat [11] = test: as §6; type: functional; settings: Homo sapiens
Jurkat [12] = test: as §1; type: functional; settings: Homo sapiens
Jurkat [13] = test: Activity on rosetting of jurkat T-cells with SRBC at the concentration of 0 M; type: functional, Homo sapiens
Jurkat [14] = test: Activity on rosetting of jurkat T-cells with SRBC at the concentration of 10e-10 M; Not Determined; type: functional, Homo sapiens
Jurkat [15] = test: (§7) Activity on rosetting of jurkat T-cells with SRBC at the concentration of 10e-11 M; type: functional, Homo sapiens
Jurkat [16] = test: (§8) Activity on rosetting of jurkat T-cells with SRBC at the concentration of 10e-12 M; type: functional, Homo sapiens
Jurkat [17] = test: (§9) Activity on rosetting of jurkat T-cells with SRBC at the concentration of 10e-10 M; type: functional; settings: Homo sapiens
Jurkat [18] = test: Activity on rosetting of jurkat T-cells with SRBC at the concentration of 10e-11 M; Not Significant; type: functional, cell-based; settings: Homo sapiens
Jurkat [19] = test: Activity on rosetting of jurkat T-cells with SRBC at the concentration of 10e-12 M; Not Significant; type: functional, cell-based; settings: Homo sapiens
Jurkat [20] = test: (§10) Activity on rosetting of jurkat T-cells with SRBC at the concentration of 10e-14 M; type: functional, Homo sapiens
Jurkat [21] = test: Activity on rosetting of jurkat T-cells with SRBC at the concentration of 10e-15 M; type: functional, Homo sapiens
Jurkat [22] = test: Activity on rosetting of jurkat T-cells with SRBC at the concentration of 10e-15 M; Not significant; type: functional, cell-based; settings: Homo sapiens
Jurkat [23] = test: as §9; type: functional, Homo sapiens
Jurkat [24] = test: (§11) Activity on rosetting of jurkat T-cells with SRBC at the concentration of 10e-13 M; type: functional, Homo sapiens
Jurkat [25] = test: as §10; type: functional; settings: Homo sapiens
Jurkat [26] = test: as §7; type: functional; settings: Homo sapiens
Jurkat [27] = test: as §8; type: functional; settings: Homo sapiens
Jurkat [28] = test: as §11; type: functional; settings: Homo sapiens

Row | SMILES | No. of rosettes/100 Jurkat T cells (Jurkat [1]) | No. of rosettes/100 Jurkat T cells (Jurkat [2]) | No. of rosettes/100 Jurkat T cells (Jurkat [3]) | No. of rosettes/100 Jurkat T cells (Jurkat [4]) | No. of rosettes/100 Jurkat T cells (Jurkat [5]) | No. of rosettes/100 Jurkat T cells (Jurkat [6]) | inhibition at 100 µM (Jurkat [7]) | inhibition at 10 µM (Jurkat [8]) | inhibition at 1 µM (Jurkat [9]) | inhibition at 0.1 µM (Jurkat [10]) | inhibition at 0.01 µM (Jurkat [11]) | inhibition at 0.001 µM (Jurkat [12]) | No. of rosettes/100 Jurkat T cells (Jurkat [13]) | No. of rosettes/100 Jurkat T cells (Jurkat [15]) | No. of rosettes/100 Jurkat T cells (Jurkat [16]) | inhibition at 0.0001 µM (Jurkat [17]) | other results
1 | CC(=O)N[C@@H](CO)C(=O)N[C@@H](CC(=O)O)C(=O)N[C@@H](CCCCN)C(=O)O (Ac-Ser-Asp-Lys-OH) | 51 | 35 | 37 | 38 | 45 | 48 | 44% | 40% | 39% | 27% | 23% | 18% | 63 | 62 | 59 | 10% | No. of rosettes/100 Jurkat T cells (Jurkat [14]): 56; inhibition (Jurkat [18]): inactive; inhibition (Jurkat [19]): inactive
2 | NCCCC[C@H](NC(=O)[C@H](CC(=O)O)NC(=O)[C@@H](N)CO)C(=O)O (H-Ser-Asp-Lys-OH) | 43 | 38 | 45 | 50 | 49 | 40 | 40% | 28% | 22% | 22% | 36% | 32% | 63 | 40 | 44 | 32% | No. of rosettes/100 Jurkat T cells (Jurkat [20]): 55; No. of rosettes/100 Jurkat T cells (Jurkat [21]): 63; inhibition (Jurkat [22]): inactive; No. of rosettes/100 Jurkat T cells (Jurkat [23]): 43; No. of rosettes/100 Jurkat T cells (Jurkat [24]): 51; inhibition at 10 fM (Jurkat [25]): 14%; inhibition at 10 pM (Jurkat [26]): 36%; inhibition at 1 pM (Jurkat [27]): 30%; inhibition at 100 fM (Jurkat [28]): 19%
